Structures can show the parent of a compound that is named as a salt. Where two headings read alike, the source gives them in different places.
Experiments:
EPHA6 = biological target: T1, EPHA6 (Homo sapiens, UniProt Q9UF33); test: Kinome screen at 300 nM (qPCR competition binding); parameters: purchased DiscoveRx; host or cells: E. coli BL21-derived (T7 phage) or HEK-293; settings: result in words
T1 sequence (Q9UF33 23-1036): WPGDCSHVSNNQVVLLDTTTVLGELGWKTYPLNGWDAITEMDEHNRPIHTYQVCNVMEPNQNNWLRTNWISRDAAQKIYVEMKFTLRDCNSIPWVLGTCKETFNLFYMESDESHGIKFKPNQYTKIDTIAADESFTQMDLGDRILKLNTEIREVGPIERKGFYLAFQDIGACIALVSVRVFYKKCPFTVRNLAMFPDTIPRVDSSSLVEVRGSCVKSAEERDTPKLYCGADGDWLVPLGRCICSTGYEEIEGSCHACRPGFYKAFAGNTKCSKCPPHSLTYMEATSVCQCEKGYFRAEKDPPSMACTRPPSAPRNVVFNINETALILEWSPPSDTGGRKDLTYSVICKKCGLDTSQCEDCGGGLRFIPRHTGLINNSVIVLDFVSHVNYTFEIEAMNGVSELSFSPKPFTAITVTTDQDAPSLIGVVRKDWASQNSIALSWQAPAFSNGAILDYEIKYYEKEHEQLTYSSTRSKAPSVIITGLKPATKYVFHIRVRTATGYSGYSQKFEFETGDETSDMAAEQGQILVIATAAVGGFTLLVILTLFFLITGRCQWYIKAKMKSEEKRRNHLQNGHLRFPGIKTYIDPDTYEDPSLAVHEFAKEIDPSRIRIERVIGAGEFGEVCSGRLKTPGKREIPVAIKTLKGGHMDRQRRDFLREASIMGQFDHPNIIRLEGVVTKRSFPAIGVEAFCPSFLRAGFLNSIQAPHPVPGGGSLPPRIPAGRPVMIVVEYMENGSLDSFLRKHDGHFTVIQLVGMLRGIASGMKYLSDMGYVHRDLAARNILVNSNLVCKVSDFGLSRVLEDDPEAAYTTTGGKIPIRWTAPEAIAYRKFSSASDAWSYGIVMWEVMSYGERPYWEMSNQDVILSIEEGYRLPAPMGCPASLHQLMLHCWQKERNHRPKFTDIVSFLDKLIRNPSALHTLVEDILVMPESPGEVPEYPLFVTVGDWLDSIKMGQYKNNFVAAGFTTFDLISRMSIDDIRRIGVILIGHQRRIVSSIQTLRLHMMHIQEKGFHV

[1] = Brain and plasma concentrations after oral gavage in rat, sampling to 4 hours (Table 4); format: in vivo; settings: Table 4 (4 hours); for Kp at 4 h: brain/plasma, po, 50 mg/kg
[2] = Brain concentrations after PO administration in rat, peak at 8 hours (Table 5); format: in vivo; settings: Table 5 (8 hours); for Kp at 8 h: brain/plasma, po, 50 mg/kg
OVCAR-5 = test: NCI screening panel, growth %; format: cell-based, human; settings: Ovarian
Procedure: (§1) After 24 h, two plates of each cell line are fixed in situ with TCA, to represent a measurement of the cell population for each cell line at the time of drug addition (Tz). Experimental drugs are solubilised in dimethyl sulfoxide at 400-fold the desired final maximum test concentration and stored frozen prior to use. At the time of drug addition, an aliquot of frozen concentrate is thawed and diluted to twice the desired final maximum test concentration with complete medium containing 50 μg/ml gentamicin. Additional four, 10-fold or log serial dilutions are made to provide a total of five drug concentrations plus control. Aliquots of 100 μl of these different drug dilutions are added to the appropriate microtiter wells already containing 100 μl of medium, resulting in the required final drug concentrations.
(§2) Following drug addition, the plates are incubated for an additional 48 h at 37° C., 5% CO2, 95% air, and 100% relative humidity. For adherent cells, the assay is terminated by the addition of cold TCA (trichloroacetic acid). Cells are fixed in situ by the gentle addition of 50 μl of cold 50% (w/v) TCA (final concentration, 10% TCA) and incubated for 60 minutes at 4° C. The supernatant is discarded, and the plates are washed five times with tap water and air dried. Sulforhodamine B (SRB) solution (100 μl) at 0.4% (w/v) in 1% acetic acid is added to each well, and plates are incubated for 10 minutes at room temperature. After staining, unbound dye is removed by washing five times with 1% acetic acid and the plates are air dried. Bound stain is subsequently solubilised with 10 mM trizma base, and the absorbance is read on an automated plate reader at a wavelength of 515 nm. For suspension cells, the methodology is the same except that the assay is terminated by fixing settled cells at the bottom of the wells by gently adding 50 μl of 80% TCA (final concentration, 16% TCA). Using the seven absorbance measurements [time zero, […], control growth, (C), and test growth in the presence of drug at the five concentration levels (Ti)], the percentage growth is calculated at each of the drug concentration levels. Percentage growth inhibition is calculated as: [(Ti−Tz)/(C−Tz)]×100 for concentrations in which Ti>/=Tz and [(Ti−Tz)/Tz]×100 for concentrations in which Ti<Tz.
(§3) Three dose response parameters are calculated for each experimental agent. […] The drug concentration resulting in total growth inhibition (TGI) is calculated from Ti=Tz. […] Values are calculated for each of these three parameters if the level of activity is reached. However, if the effect is not reached or is exceeded, the value for that parameter is expressed as greater or less than the maximum or minimum concentration tested.

RXF 393 = test: NCI screening panel, growth %; format: cell-based, human; settings: Renal
Procedure: as §1, §2, §3

SNB-19 = test: NCI screening panel, growth %; format: cell-based, human; settings: CNS
Procedure: as §1, §2, §3

UACC-62 = test: NCI screening panel, growth %; format: cell-based, human; settings: Melanoma
Procedure: as §1, §2, §3

CCRF-CEM = test: NCI screening panel, growth %; format: cell-based, human; settings: Leukemia
Procedure: as §1, §2, §3

MOLT-4 = test: NCI screening panel, growth %; format: cell-based, human; settings: Leukemia
Procedure: as §1, §2, §3

SK-OV-3 = test: NCI screening panel, growth %; format: cell-based, human; settings: Ovarian
Procedure: as §1, §2, §3

OVCAR-3 = test: NCI screening panel, growth %; format: cell-based, human; settings: Ovarian
Procedure: as §1, §2, §3

MCF7 = test: NCI screening panel, growth %; format: cell-based, human; settings: Breast
Procedure: as §1, §2, §3

EKVX = test: NCI screening panel, growth %; format: cell-based, human; settings: NSCLC
Procedure: as §1, §2, §3

OVCAR-8 = test: NCI screening panel, growth %; format: cell-based, human; settings: Ovarian
Procedure: as §1, §2, §3

[3] = male, Sprague-Dawley (SD), brain tissue, PO 50 mg/kg
[4] = Sprague-Dawley, brain, PO 50 mg/kg

Fc1ccc(Nc2ncnc3cc(OCCOC(F)F)c(OCCOC(F)F)cc23)c(F)c1Cl [Compound 2D•HCl, N-(3-chloro-2,4-difluoro-phenyl)-6,7-bis[2-(difluoromethoxy)ethoxy]quinazolin-4-amine]
selectivity over erlotinib for the ephrin receptor kinase, EPHA6 (EPHA6): did show selectivity over erlotinib | AUClast ([1]; brain tissue, PO 50 mg/kg): 25272 ng·h/g | Cmax [1, 3]: 8040 ng/g | Tmax [1, 3]: 4 h | Kp at 4 h ([1]; male, Sprague-Dawley (SD), read-out: AUCLast Ratio (Brain/Plasma)): 2.05 | Kp at 4 h ([1]; male, Sprague-Dawley (SD), read-out: Cmax Ratio (Brain/Plasma)): 2.01 | Cmax [2, 4]: 6340 ng/g | Tmax [2, 4]: 8 h | Kp at 8 h ([2]; Sprague-Dawley, read-out: AUCLast Ratio (Brain/Plasma)): 1.92 | Kp at 8 h ([2]; Sprague-Dawley, read-out: Cmax Ratio (Brain/Plasma)): 2.07 | AUCInf ([2]; brain, PO 50 mg/kg): 101339 ng·h/g | AUClast ([2]; brain, PO 50 mg/kg): 99996 ng·h/g | Growth % (OVCAR-5): 26.63% | Growth % (RXF 393): 37.95% | Growth % (SNB-19): 75.78% | Growth % (UACC-62): 82.70% | Growth % (CCRF-CEM): 75.53% | Growth % (MOLT-4): 55.03% | Growth % (SK-OV-3): −13.36% | Growth % (OVCAR-3): 60.72% | Growth % (MCF7): 66.06% | Growth % (EKVX): 48.49% | Growth % (OVCAR-8): 69.11%
